Test results published in patent US20260224566A1, “Obicetrapib and Ezetimibe Combination Treatment and Fixed Dose Pharmaceutical Compositions” (NewAmsterdam Pharma B.V., priority 2023, published 2026).

Test system: participants currently receiving high-intensity statin therapy
Assay: ROSE2 Phase 2b clinical trial: safety and tolerability (adverse events, disposition)
Assay type: in vivo, human
Method: The safety and tolerability profile of obicetrapib 10 mg, both in combination with ezetimibe 10 mg and as monotherapy, will be assessed by clinical laboratory assessments (chemistry and hematology), vital signs, physical examinations, and the incidence of AEs.
An AE can therefore be any unfavorable and/or unintended sign (including an abnormal laboratory finding), symptom, or disease temporally associated with the use of an investigational medicinal product, whether or not related to the investigational medicinal product. All AEs, including observed or volunteered problems, complaints, or symptoms, are to be recorded on the appropriate eCRF.
AEs, which include clinical laboratory assessment variables, will be monitored and documented from the time of first dose of study treatment until completion of Visit 5. Participants should be instructed to report any AE that they experience to the Investigator, whether or not they think the event is due to study drug. Beginning at the date of the first dose of study treatment, Investigators should make an assessment for AEs at each visit and record the event on the appropriate AE eCRF.
The Investigator will assess the severity (intensity) of each AE as mild, moderate, or severe, and will also categorize each AE as to its potential relationship to study drug using the categories of yes or no.
An AE or adverse reaction is considered serious if, in the view of either the Investigator or Sponsor, it results in any of the following outcomes: • Death; • A life-threatening AE; Note: An AE or adverse reaction is considered “life-threatening” if, in view of either the Investigator or Sponsor, its occurrence places the participant at immediate risk of death. […] However, unexpected complications and/or prolongation of hospitalization that occur during elective surgery should be recorded as AEs and assessed for seriousness. Admission to the hospital for social or situational reasons (ie, no place to stay, live too far away to come for hospital visits, respite care) will not be considered inpatient hospitalizations. • A persistent or significant disability/incapacity or substantial disruption of the ability to conduct normal life functions; • A congenital anomaly/birth defect; or • An important medical event.
The Safety Population will include all participants who receive at least 1 dose of any study drug. Treatment classification will be based on the actual treatment received. The Safety Population will be the primary population used for the safety analyses.

[1] = All Randomized Participants, obicetrapib 10 mg (N = 39), obicetrapib 10 mg + ezetimibe 10 mg (N = 40)
[2] = Safety Population, 10 mg each drug
[3] = Safety Population, 10 mg each drug, last line so labelled (r41)

`CCOC(=O)N1c2ccc(C(F)(F)F)cc2[C@@H](N(Cc2cc(C(F)(F)F)cc(C(F)(F)F)c2)c2ncc(OCCCC(=O)O)cn2)C[C@H]1CC` [obicetrapib, {4-[(2-{[3,5-bis(trifluoromethyl)benzyl] [(2R,4S)-1-(ethoxycarbonyl)-2-ethyl-6-(trifluoromethyl)-1,2,3,4-tetrahydroquinolin-4-yl]amino}pyrimidin-5-yl)oxy]butanoic acid}] was tested, and the “Completed the study (with PK), (%)” value [1] was “(94.9) %”, the “Completed treatment, (%)” value [1] was “(92.3) %” and the “Discontinued study early, (%)” value [1] was “(5.1) %”. The “Discontinued treatment, (%)” value [1] was “(7.7) %”, the “Primary reason for early study discontinuation: LOST TO FOLLOW-UP, (%)” value [1] was “(2.6) %” and the “Primary reason for early study discontinuation: OTHER, (%)” value [1] was “(0.0) %”. The “Primary reason for early study discontinuation: WITHDRAWAL BY SUBJECT, (%)” value [1] was “(0.0) %”, the “Primary reason for treatment discontinuation: NON-COMPLIANCE WITH STUDY DRUG, (%)” value [1] was “(2.6) %” and the “Primary reason for treatment discontinuation: OTHER, (%)” value [1] was “(0.0) %”. For the same compound, the “Primary reason for treatment discontinuation: WITHDRAWAL BY SUBJECT, (%)” value [1] was “(0.0) %”, the “Any TEAEs by maximum severity: Mild, e” value [2] was 20 and the “Any TEAEs by maximum severity: Moderate, (%)” value [2] was “(7.7) %”. For the same compound, the “Any TEAEs leading to death, (%)” value [2] was “(0.0) %”, the “Any TEAEs leading to death, e” value [2] was 0 and the “Any serious TEAEs (TESAEs), (%)” value [2] was “(5.1) %”. For the same compound, the “Any serious TEAEs (TESAEs), e” value [2] was 2, the “Any study drug-related TEAEs by maximum severity: Mild, e” value [2] was 4 and the “Any study drug-related TEAEs by maximum severity: Moderate, (%)” value [2] was “(5.1) %”. The “Any study drug-related TEAEs by maximum severity: Severe, (%)” value [2] was “(5.1) %”, the “Any study drug-related TEAEs leading to discontinuation of study drug, (%)” value [2] was “(5.1) %” and the “Any study drug-related TEAEs, (%)” value [2] was “(2.6) %”. The “Any study drug-related TESAEs, (%)” value [2] was “(2.6) %”, the “Any study drug-related TESAEs, e” value [2] was 1 and the “Any treatment-emergent AEs (TEAEs), e” value [2] was 20. For the same compound, the “Any TEAEs leading to discontinuation of study drug, (%)” value (Safety Population, 10 mg each drug, first line so labelled (r25)) was “(0.0) %”, the “Any TEAEs leading to discontinuation of study drug, (%)” value [3] was “(0.0) %” and the “Any TEAEs leading to discontinuation of study drug, e” value [3] was 0.
